Values after ≈ are worked out from the molar mass of the structure shown. Values joined by “and” are separate entries in the source; they are usually repeats but may differ in a detail not shown here. Equal entries are not always repeated. Where two headings read alike, the source gives them in different places.
Legend:
Format in all cases: physicochemical
[1] = Competitive slurry experiments (polymorph stability)
Procedure: Competitive slurry experiments were conducted between Forms 1 and 3 and between Forms 1 and 2. A mixture of the two forms (25 mg per form) being investigated was slurried in 1 mL of solvent for one day at 20° C. or 60° C. in five different solvents (acetone, acetic acid, ethanol, ethyl acetate and ethynol).
Competitive slurries were performed to compare the relative stability between two forms at a given temperature in a given solvent.

[2] = 7 day stress stability, chemical stability by HPLC; conditions: for Chemical stability: 1 week stress test, conditions studied; for Sialic acid Area % (HPLC): two injections; for HPLC purity of recovered samples: all three conditions (ambient; 40° C./75% RH; 80° C.)
Procedure: The chemical purity was measured on an Agilent HP1100 HPLC system fitted with an Agilent variable wavelength UV detector. Samples were prepared by dissolving in diluent at a concentration of 1 mg/mL before being analysed under the following HPLC conditions:
(§1) The selected Forms (5, 3 and 2) were fully characterized by PLM, XRPD, ^1H NMR and IR spectroscopy, DSC, TG/DTA, GVS (with post-GVS XRPD), Karl Fischer titration for water content and HPLC analysis for purity. All of these forms with the addition of Form 1 were also placed under a stress-stability test, at three different conditions for one week (ambient conditions, 40° C. and 75% relative humidity, 80° C.). In addition to this, an approximate solubility test was conducted on the different solid forms using a solvent addition method.
(§2) All four Forms (1, 2, 3 and 5) were placed under 7 day stress stability testing. This was carried out by placing the four forms under three different conditions for one week. Their physical stability was then analyzed by comparing the diffractograms and the chemical stability was checked by HPLC.

[3] = 7 day stress stability, physical form by XRPD; conditions: for Stability as a physical form (XRPD): 1 week stress test, overall
Procedure: XRPD analysis was carried out on a Panalytical X′pert Pro, scanning the samples between 3 and 35° […]. The material was gently ground and loaded onto a multi well plate with Kapton or mylar polymer film to support the sample. The multi well plate was then loaded into a Panalytical diffractometer running in transmission mode and analysed, using the following experimental conditions.
as §1, §2

HPLC-UV chemical purity = conditions: for HPLC (purity): summary Table 13
Procedure: The chemical purity was measured on an Agilent HP1100 HPLC system fitted with an Agilent variable wavelength UV detector. Samples were prepared by dissolving in diluent at a concentration of 1 mg/mL before being analysed under the following HPLC conditions: […]

[4] = Slurries of Form 1 at 5° C. followed by XRPD over time
Procedure: Due to the discolouration of samples during slurry experiments in water and water/acetic acid mixtures, slurries of sialic acid (Form 1) were made at 5° C. in water, water/acetic acid (80/20 v/v) mixture, ethyl acetate and acetic acid and stirred for […]. Diffractograms of the slurried solids were recorded after 10 minutes, 4 hours, 20 hours and 28 hours. Form 5 was obtained in slurries containing water at all time points. Form 1 was obtained for acetic acid and ethyl acetate for all time points.

[5] = Differential Scanning Calorimetry (DSC)
Procedure: Approximately, 5 mg of material was weighed into an aluminium DSC pan and sealed non-hermetically with a pierced aluminium lid. The sample pan was then loaded into a Seiko DSC6200 (equipped with a cooler) cooled and held at 25° C. Once a stable heat-flow response was obtained, the sample and reference were heated to 210° C. at a scan rate of 10° C./min and the resulting heat flow response monitored. Nitrogen was used as the purge gas, at a flow rate of 50 cm^3/min.

[6] = Approximate aqueous solubility of the solid forms (solvent addition method); conditions: for solubility / Aqueous Solubility, Solubility in g/L: deionized water; for solubility: water, thermodynamic from solid
Procedure: as §1
Approximately 50 mg of each form (1, 2, 3 and 5) was weighed into a 2 ml vial. 20 μl aliquots of deionized water was added to each vial until complete dissolution of the solid was observed. The volume was noted down and the approximate water solubility calculated.

[7] = Thermogravimetric/Differential Thermal Analysis (TG/DTA)
Procedure: Approximately, 10 mg of material was weighed into an open aluminium pan and loaded into a simultaneous thermogravimetric/differential thermal analyser (TG/DTA) and held at room temperature. The sample was then heated at a rate of 10° C./min from 25° C. to 300° C. during which time the change in sample weight was recorded along with any differential thermal events (DTA). Nitrogen was used as the purge gas, at a flow rate of 300 cm^3/min.

[8] = Gravimetric Vapour Sorption (GVS) with post-GVS XRPD; conditions: for GVS mass difference: between 0-90% relative humidity; for Polymorphic form after GVS (XRPD): material reclaimed after GVS run
Procedure: Approximately 10-20 mg of sample was placed into a mesh vapour sorption balance pan and loaded into an IGASorp Moisture Sorption Analyser balance by Hiden Analytical. The sample was subjected to a ramping profile from 40-90% relative humidity (RH) at 10% increments, maintaining the sample at each step until a stable weight had been achieved (98% step completion). After completion of the sorption cycle, the sample was dried using the same procedure to 0% RH, and finally taken back to the starting point of 40% RH. The weight change during the sorption/desorption cycles were plotted, allowing for the hygroscopic nature of the sample to be determined.

[9] = PLM (morphology) of the solid forms; conditions: for PLM (morphology): particle shape
[10] = Desolvation / dehydration on heating, form checked by XRPD
Procedure: A weight loss of 33.1% is observed, prior to decomposition, which coincides with an onset in the DTA profile at ca. 108.8° C. (onset of the endotherm). The second endothermic event corresponds with decomposition at ca. 186.3° C. (onset of the endotherm). The 33.1% of loss of weight corresponds to 1.96 molecules of DMSO for 1 molecule of sialic acid. It is thus very likely that Form 4 is a stoichiometric bis-solvate (2:1). The ^1H NMR spectrum is consistent with sialic acid. The only noticeable difference between the spectra of Form 1 and Form 4 is the relative size of the resonance at ca. 2.5 ppm. This is due to DMSO, which further supports that Form 4 is a DMSO solvate.
Referring to PLM images (FIG. 20), the habit of Form 5 is block-like with a length around 100 μm. Strong birefringence is observed. […] Further weight losses are present, which may be due to decomposition. The loss of weight of 10.5% correlates very well with the KF Titration (10.34%). It is very likely Form 5 is a dihydrate (expected loss of weight for a dihydrate is 10.44%). […] This possibly indicates the formation of a new anhydrous form by desolvation of Form 5 (onset seen for Form 1 is ca. 188.9° C.). The difference between the TG/DTA and the DSC traces is likely to be due to the difference in pan (open pan for TG/DTA and pierced closed pan for DSC). […]

[11] = acetone, ethanol, ethyl acetate, ethynol, 20° C. or 60° C.
[12] = after 1 week under 40° C., 75% RH
[13] = after 1 week under ambient conditions
[14] = 1 week under ambient conditions

CC(=O)N[C@H]1[C@H]([C@H](O)[C@H](O)CO)OC(O)(C(=O)O)C[C@@H]1O (stereo partly drawn) [Form 1, N-acetylneuraminic acid]
Form recovered from competitive slurry between Forms 1 and 2 ([1]; acetic acid): mixture of Forms 1 and 3
Form recovered from competitive slurry between Forms 1 and 3 ([1]; acetic acid): mixture of Form 1 and 3
Form recovered from competitive slurry between Forms 1 and 2 [1, 11]: Form 1 is recovered
Form recovered from competitive slurry between Forms 1 and 3 [1, 11]: Form 1 is recovered
Relative stability, competitive slurries between Forms 1 and 2 ([1]; all studied conditions): more stable than Form 2
Relative stability, competitive slurries between Forms 1 and 3 ([1]; all studied conditions except in acetic acid): more stable than Form 3
Overall relative stability of the form ([1]; competitive slurries, most of the studied conditions): thermodynamically most stable form
Chemical stability [2]: stable
N-acetyl-D-glucosamine Area % (HPLC) [2, 12]: 0.079% and 0.081%
Sialic acid Area % (HPLC) [2, 12]: 99.580% and 99.590%
N-acetyl-D-glucosamine Area % (HPLC) ([2]; after 1 week under 80° C.): 0.062%
N-acetyl-D-glucosamide known impurity [2, 13]: 0.076%
Sialic acid Area % (HPLC) [2, 13]: 99.705% and 99.711%
HPLC purity of recovered samples ([2]; after 1 week): higher than 99.5%
Stability as a physical form (XRPD) [3]: stable
Stability - XRPD post Stability ([3]; no single condition stated): no change
HPLC (purity) (HPLC-UV chemical purity): 99.5%
Form obtained from slurry (XRPD) ([4]; acetic acid, all time points): Form 1
Form obtained from slurry (XRPD) ([4]; ethyl acetate, all time points): Form 1
Time to full conversion to Form 5 in slurry ([4]; water and water/acetic acid (80:20 v/v)): ≤ 10 min
Form obtained from slurry (XRPD) ([4]; water, all time points (10 minutes to 28 hours)): Form 5
Form obtained from slurry (XRPD) ([4]; water/acetic acid (80/20 v/v), all time points): Form 5
DSC (thermal events) Endotherm [5]: 188.6° ° C.
solubility ([6]; aqueous, read-out: Approximate solubility): 98.5 g/L (≈ 318 mM)
solubility ([6]; approximate, solvent addition, read-out: Aqueous Solubility, Solubility in g/L): 98.5 g/L (≈ 318 mM)
TGA Decomposition temperature [7]: at 190.2 °C
Hygroscopicity (GVS) [8]: very slightly hygroscopic
Stability when exposed to different humidity levels [8]: stable
XRPD post DVS [8]: no change
GVS mass difference [8]: 1.4%
Polymorphic form after GVS (XRPD) [8]: same polymorphic form (Form 1)
PLM (morphology), particle size [9]: <10 μm
PLM (morphology) [9]: Small needles

CC(=O)N[C@H]1[C@H]([C@H](O)[C@H](O)CO)OC(O)(C(=O)O)C[C@@H]1O (stereo partly drawn) [Form 3, N-acetylneuraminic acid]
Chemical stability [2]: moderate chemical stability
Sialic acid Area % (HPLC) [2, 12]: 98.011% and 98.031%
Sialic acid Area % (HPLC) ([2]; after 1 week under 80° C.): 99.526% and 99.523%
Sialic acid Area % (HPLC) [2, 13]: 99.684% and 99.715%
HPLC purity of recovered samples ([2]; after 1 week): higher than 98%
Physical form (XRPD) after stress ([3]; 1 week at 80° C.): to Form 2
Stability as a physical form (XRPD) [3]: not stable
Physical form (XRPD) after stress [3, 14]: converts to Form 2
Stability - XRPD post Stability ([3]; at 80° C.): Form 2 at 80 °C
Stability - XRPD post Stability ([3]; at RT): Form 2 at RT
HPLC (purity) (HPLC-UV chemical purity): 99.8%
DSC (thermal events) Endotherm [5]: 107° ° C. and 181.0° ° C.
Approximate solubility ([6]; aqueous): 188.2 mg/mL
Aqueous Solubility, Solubility in g/L ([6]; approximate, solvent addition): 188.2 g/L
TGA (weight loss) [7]: 15.3%
TGA Decomposition temperature [7]: 176.2° ° C.
TGA temperature of the weight loss [7]: (80° C.)
DVS (hygroscopicity) [8]: Goes to form 1
XRPD post DVS [8]: change
Polymorphic form after GVS (XRPD) [8]: converts to Form 1
GVS weight loss (desolvation) ([8]; on increase of humidity): 16%
DVS, RH at which the form goes to form 1 ([8]; relative humidity): RH >50%
PLM (morphology), particle size [9]: <30 μm
PLM (morphology) [9]: Small needles

CC(=O)N[C@H]1[C@H]([C@H](O)[C@H](O)CO)OC(O)(C(=O)O)C[C@@H]1O (stereo partly drawn) [Form 4, N-acetylneuraminic acid]
Form after desolvation (XRPD) ([10]; 15 min at 100° C. under vacuum): converted to Form 1

CC(=O)N[C@H]1[C@H]([C@H](O)[C@H](O)CO)OC(O)(C(=O)O)C[C@@H]1O (stereo partly drawn) [Form 5, N-acetylneuraminic acid]
HPLC (purity) ([2]; after 1 week at 80° C.): 96.8%
Sialic acid Area % (HPLC) [2, 12]: 99.899% and 99.919%
Sodium Pyruvate Area % (HPLC) ([2]; after 1 week under 80° C.): 0.559%
HPLC (purity) ([2]; after 1 week, both ambient and 40° C./75% RH samples): higher than 99.9%
Area % Acetic acid (HPLC) ([2]; stability under 80° C.): 0.000%
Area % N-acetyl-D-glucosamine (HPLC) ([2]; stability under 80° C.): 0.000%
Area % N-acetyl-D-mannosamine (HPLC) ([2]; stability under 80° C.): 0.000%
Physical form (XRPD) after stress ([3]; 1 week at 40° C./75% RH): stable
Physical form (XRPD) after stress ([3]; 1 week at 80° C.): converts to an unknown form
Physical form (XRPD) after stress [3, 14]: stable
Stability - XRPD post Stability ([3]; at 80° C.): New form 80 °C
Stability - XRPD post Stability ([3]; at RT): Form 5 at RT
Area % Sodium Pyruvate (HPLC) (HPLC-UV chemical purity; no stress condition stated): 0.000%
HPLC (purity) (HPLC-UV chemical purity): 99.80% and 99.90%
Approximate solubility ([6]; aqueous): 96.6 mg/mL
Aqueous Solubility, Solubility in g/L ([6]; approximate, solvent addition): 96.6 g/L
TGA (weight loss) [7]: 10.5%
TGA temperature of the weight loss [7]: (88.4° C.)
Form after dehydration (XRPD) ([10]; held at 90° C. for 35 min in TG/DTA apparatus): unknown form
Hygroscopicity (GVS) [8]: very slightly hygroscopic
Stability when exposed to different humidity levels [8]: stable
XRPD post DVS [8]: no change
GVS mass difference [8]: 1.45%
Polymorphic form after GVS (XRPD) [8]: same polymorphic form (Form 5)
PLM (morphology), particle size [9]: < 100 μm
PLM (morphology) [9]: Blocks
